Source: patent US7696221B2, “Thienoisoquinoline-phenylsulfonamides and their use as ER-NFκB inhibitors” (Wyeth LLC, priority 2004, dated 2010)

Key:
[1] = system: IL-6; assay: IL-6 assay (ELISA) in Ad5-wt-ER infected HAECT-1 cells; format: cell-based, human; details: for ER/IL-6 % Eff: relative to the maximal inhibition observed with E2; for IC50: IL-1 treated
Procedure: (§1) After four hours, cells were washed with EBM-BSA and incubated overnight in the same medium. […] After two hours, cells were washed and incubated at 34° C. for 1 hour. Cells were then washed, trypsinized, counted and resuspended in 95% FBS/5% dimethylsulfoxide at a concentration of 4×10^6 cells/ml, frozen as 1 or 5 ml aliquots in cryo-vials and stored at −150° C. Control (no ER infection) cells were processed as above without Ad5-wt-hER virus infection. […] Cells were subsequently washed with 300 l of Dulbecco's phosphate buffered saline and lysed in 50 l of Cell Culture Lysis Reagent (Promega). Luciferase was determined on a Wallac Victor^2 Luminometer (Gaithersburg, Md.) using 10 l of lysate and mixing with 100 l of Promega Luciferase Assay reagent. Creatine kinase was determined from the rate of increase in A340 following addition of 100 l of CK assay reagent (Sigma, cat. […] For IC50 and EC50 calculations, mean IL-6, luciferase or CK values versus log10 of the compound concentration were fitted to a four parameter logistic equation. The IC50/EC50 value, ‘Hill slope’, upper and lower limits of the curve were iteratively estimated.

[2] = system: creatine kinase; assay: Creatine kinase assay in Ad5-wt-ER infected HAECT-1 cells; format: cell-based, human; details: for EC50: Homo sapiens, HAECT1, N/O = activity not observed at doses tested, read-out: ER/CK EC50; for ER/CK % Eff*: relative to the maximal stimulation observed with E2; for ER/CK EC50: N/O = activity not observed at doses tested
Procedure: as §1

[3] = system: NF-κB; assay: NFκB-luciferase assay in Ad5-wt-ER infected HAECT-1 cells; format: cell-based, human; details: for IC50: IL-1 treated, read-out: ER/NF-KB-luc IC50; for ER/NF-KB-luc % Eff*: relative to the maximal inhibition observed with E2
Procedure: T-175 flasks of 100% confluent HAECT-1 cells (immortalized human aortic endothelial cells) were washed with 8 ml of HBSS (HEPES buffered saline solution) and infected for four hours with 6 ml of a 1:10 dilution of Ad5-wt-hER virus (an adenovirus transfection vector that mediates CMV promoter driven expression of human ER) in phenol red free Endothelial Cell Basal medium (Clonetics, San Diego Calif., Catalog # CC-3129) containing 0.25% bovine serum albumin (EBM-BSA). After four hours, cells were washed with EBM-BSA and incubated overnight in the same medium. Following overnight incubation, cells were washed with EBM-BSA and infected for 2 hours with 6 ml of a 1:10 dilution of Ad5-3×(NF B).Luc virus (Adenovirus luciferase expression vector driven by 3 repeats of the MHC NF b site 5′ to the thymidine kinase promoter) in EBM-BSA. After two hours, cells were washed and incubated at 34° C. for 1 hour. Cells were then washed, trypsinized, counted and resuspended in 95% FBS/5% dimethylsulfoxide at a concentration of 4×10^6 cells/ml, frozen as 1 or 5 ml aliquots in cryo-vials and stored at −150° C. Control (no ER infection) cells were processed as above without Ad5-wt-hER virus infection.
ER infected HAECT-1 cells or control cells were thawed, diluted 42× in warm EBM-BSA, plated into 96-well plates at 0.1 ml/well and incubated for 4 h at 34° C. Test compounds were added to the cells as 2× stocks in EBM-BSA containing 2 ng/ml IL-1 (R&D Systems) and plates were returned to the incubator (34° C.). After 15-20 h, 100 l aliquots of media were removed from the cells and assayed for IL-6 content using a BioSource human IL-6 ELISA Kit. Cells were subsequently washed with 300 l of Dulbecco's phosphate buffered saline and lysed in 50 l of Cell Culture Lysis Reagent (Promega). Luciferase was determined on a Wallac Victor^2 Luminometer (Gaithersburg, Md.) using 10 l of lysate and mixing with 100 l of Promega Luciferase Assay reagent. Creatine kinase was determined from the rate of increase in A340 following addition of 100 l of CK assay reagent (Sigma, cat. No 47-10) to the remainder of the cell lysate.
For IC50 and EC50 calculations, mean IL-6, luciferase or CK values versus log10 of the compound concentration were fitted to a four parameter logistic equation. The IC50/EC50 value, ‘Hill slope’, upper and lower limits of the curve were iteratively estimated.

[4] = Ad5-wt-ER infected HAECT-1 cells
[5] = Homo sapiens, HAECT1, Ad5-wt-ER infected HAECT-1 cells

Structure (SMILES)	melting point [°C]	ER/IL-6 % Eff [1, 4] [%]	IC50 [1, 5] [µM]	EC50 [2] [µM]	ER/CK % Eff* [2] [%]	ER/CK EC50 [2]	IC50 [3] [µM]	ER/NF-KB-luc % Eff* [3] [%]	IC50 [1, 4] [µM]
CCc1cc2c(s1)-c1ccccc1C(CC)N2S(=O)(=O)c1ccc(O)cc1 (stereo not drawn)	119 to 122								
CC1c2ccccc2-c2sccc2N1S(=O)(=O)c1ccc(O)cc1 (stereo not drawn) [Example 4, 4-[(5-Methylthieno[3,2-c]isoquinolin-4(5H)-yl)sulfonyl]phenol]	163 to 165	172	0.0668	0.1	42				
CCC1c2ccccc2-c2sccc2N1S(=O)(=O)c1ccc(O)cc1 (stereo not drawn) [Example 5, 4-[(5-Ethylthieno[3,2-c]isoquinolin-4(5H)-yl)sulfonyl]phenol]	169 to 171	174	0.0213			N/O			
CC1c2ccccc2-c2sc(Br)cc2N1S(=O)(=O)c1ccc(O)cc1 (stereo not drawn) [Example 6, 4-[(2-Bromo-5-methylthieno[3,2-c]isoquinolin-4(5H)-yl)sulfonyl]phenol]	209 to 211	162	0.0282			N/O			
C[C@@H]1c2ccccc2-c2sc(Br)cc2N1S(=O)(=O)c1ccc(O)cc1 [Example 7, 4-{[(5R)-2-bromo-5-methylthieno[3,2-c]isoquinolin-4-(5H)-yl]sulfonyl}phenol]		161				N/O	1.45	84	5.82
C[C@H]1c2ccccc2-c2sc(Br)cc2N1S(=O)(=O)c1ccc(O)cc1 [Example 8, 4-{[(5S)-2-bromo-5-methylthieno[3,2-c]isoquinolin-4-(5H)-yl]sulfonyl}phenol]		164				N/O	0.019	92	0.0089
CCC1c2ccccc2-c2sc(Br)cc2N1S(=O)(=O)c1ccc(O)cc1 (stereo not drawn) [Example 9, 4-[(2-Bromo-5-ethylthieno[3,2-c]isoquinolin-4(5H)-yl)sulfonyl]phenol]	183 to 185	194	0.0077	0.047	33				
CCC1c2ccccc2-c2sc(-c3ccsc3)cc2N1S(=O)(=O)c1ccc(O)cc1 (stereo not drawn) [Example 10, 4-[(5-Ethyl-2-thien-3-ylthieno[3,2-c]isoquinolin-4(5H)-yl)sulfonyl]phenol]	195 to 196								
CCC1c2ccccc2-c2sc(-c3ccccc3)cc2N1S(=O)(=O)c1ccc(O)cc1 (stereo not drawn) [Example 11, 4-[(5-Ethyl-2-phenylthieno[3,2-c]isoquinolin-4(5H)-yl)sulfonyl]phenol]		132	0.0246	0.015	63				
CC1c2ccccc2-c2sc(Br)cc2N1S(=O)(=O)c1ccc(O)c(Br)c1 (stereo not drawn) [Example 12, 2-Bromo-4-[(2-bromo-5-methylthieno[3,2-c]isoquinolin-4(5H)-yl)sulfonyl]phenol]		197	1.48	1.54	35				
C[C@]12CC[C@@H]3c4ccc(O)cc4CC[C@H]3[C@@H]1CC[C@@H]2O [Example E2, 17β-estradiol, reference compound]		100		0.0058	100				0.0017
